These results are taken from ChEMBL document CHEMBL3431459, “Roche carnitine palmitoyltransferase modulator screening data (supplementary data associated with the publication CHEMBL2216752)”.

Data set [1] has as its target T1, Carnitine O-palmitoyltransferase 1, liver isoform (Rattus norvegicus, UniProt P32198).
T1 sequence (P32198 whole entry): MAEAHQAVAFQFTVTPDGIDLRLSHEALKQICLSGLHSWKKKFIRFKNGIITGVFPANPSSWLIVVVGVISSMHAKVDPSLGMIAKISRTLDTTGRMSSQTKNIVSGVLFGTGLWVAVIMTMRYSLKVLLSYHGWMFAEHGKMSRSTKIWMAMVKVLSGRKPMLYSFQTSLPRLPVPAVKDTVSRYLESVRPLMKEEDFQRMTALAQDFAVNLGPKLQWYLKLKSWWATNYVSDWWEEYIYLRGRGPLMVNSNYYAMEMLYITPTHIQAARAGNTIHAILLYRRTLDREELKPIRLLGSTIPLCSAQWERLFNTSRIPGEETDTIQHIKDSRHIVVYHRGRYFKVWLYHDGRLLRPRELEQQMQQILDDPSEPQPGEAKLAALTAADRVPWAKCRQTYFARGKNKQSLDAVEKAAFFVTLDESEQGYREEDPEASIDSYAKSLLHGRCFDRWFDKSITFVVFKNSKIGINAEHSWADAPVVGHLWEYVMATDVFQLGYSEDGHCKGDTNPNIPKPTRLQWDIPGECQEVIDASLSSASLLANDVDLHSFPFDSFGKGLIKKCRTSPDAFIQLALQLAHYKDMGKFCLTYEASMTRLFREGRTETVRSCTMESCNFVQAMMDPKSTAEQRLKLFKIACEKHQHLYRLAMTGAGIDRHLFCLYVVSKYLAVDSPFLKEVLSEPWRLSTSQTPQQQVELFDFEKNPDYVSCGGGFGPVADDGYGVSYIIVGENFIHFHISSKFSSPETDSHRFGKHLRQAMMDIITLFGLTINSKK
The experiment in a line: (§1) SUPPLEMENTARY: Inhibition of Carnitine palmitoyltransferase 1, liver isoform.

Data set [2] deals with T2, Carnitine O-palmitoyltransferase 1, liver isoform (Homo sapiens, UniProt P50416).
T2 sequence (P50416 whole entry): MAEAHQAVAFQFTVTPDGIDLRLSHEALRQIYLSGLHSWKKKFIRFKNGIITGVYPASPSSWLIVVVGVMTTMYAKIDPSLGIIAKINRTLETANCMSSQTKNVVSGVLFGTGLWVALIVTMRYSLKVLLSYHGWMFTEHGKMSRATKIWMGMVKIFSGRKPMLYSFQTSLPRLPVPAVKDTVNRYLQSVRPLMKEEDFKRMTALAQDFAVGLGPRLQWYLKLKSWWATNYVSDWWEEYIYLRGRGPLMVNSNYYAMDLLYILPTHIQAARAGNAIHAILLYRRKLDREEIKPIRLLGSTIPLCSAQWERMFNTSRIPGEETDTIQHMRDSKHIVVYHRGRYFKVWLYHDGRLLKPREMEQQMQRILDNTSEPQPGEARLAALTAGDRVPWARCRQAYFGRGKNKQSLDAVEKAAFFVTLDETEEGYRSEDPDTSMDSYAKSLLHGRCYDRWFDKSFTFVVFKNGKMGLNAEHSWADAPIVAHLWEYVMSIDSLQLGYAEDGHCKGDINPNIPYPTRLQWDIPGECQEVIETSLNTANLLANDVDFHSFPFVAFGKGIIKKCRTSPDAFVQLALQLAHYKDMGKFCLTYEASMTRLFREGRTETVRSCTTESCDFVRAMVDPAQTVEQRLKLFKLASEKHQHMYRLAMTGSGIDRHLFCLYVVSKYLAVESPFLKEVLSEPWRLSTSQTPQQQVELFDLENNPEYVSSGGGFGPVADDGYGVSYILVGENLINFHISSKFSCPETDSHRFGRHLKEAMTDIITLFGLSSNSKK
Described as §1.

The nature of data set [3]: SUPPLEMENTARY: PAMPA permeability assay. The following applies: read-out: Permeability. The class given is physicochemical.
A short description of data set [4]: SUPPLEMENTARY: Lipophilicity (log D) Determination by high-throughput shake-flask. The class given is physicochemical. The following applies: octanol/water.
The target of data set [5] is T3, Carnitine O-palmitoyltransferase 2, mitochondrial (Rattus norvegicus, UniProt P18886).
T3 sequence (P18886 whole entry): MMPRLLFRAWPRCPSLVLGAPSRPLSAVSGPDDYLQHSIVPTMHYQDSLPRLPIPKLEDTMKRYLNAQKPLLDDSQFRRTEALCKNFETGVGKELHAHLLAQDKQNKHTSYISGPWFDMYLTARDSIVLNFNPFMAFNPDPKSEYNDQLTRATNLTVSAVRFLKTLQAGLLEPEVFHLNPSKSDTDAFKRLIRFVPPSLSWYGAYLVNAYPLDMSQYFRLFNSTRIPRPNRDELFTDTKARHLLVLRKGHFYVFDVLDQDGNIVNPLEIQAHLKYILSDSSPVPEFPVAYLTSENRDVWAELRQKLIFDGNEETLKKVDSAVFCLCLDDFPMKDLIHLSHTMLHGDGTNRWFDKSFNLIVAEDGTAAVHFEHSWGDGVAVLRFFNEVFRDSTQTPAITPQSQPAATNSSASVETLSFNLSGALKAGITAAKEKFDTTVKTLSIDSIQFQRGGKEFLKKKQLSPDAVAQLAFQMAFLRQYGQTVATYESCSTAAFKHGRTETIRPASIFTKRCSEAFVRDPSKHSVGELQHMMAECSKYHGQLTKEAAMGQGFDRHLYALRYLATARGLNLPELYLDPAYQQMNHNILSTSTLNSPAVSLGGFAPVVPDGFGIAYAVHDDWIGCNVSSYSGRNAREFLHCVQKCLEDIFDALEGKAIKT
The data set can be described thus: (§2) SUPPLEMENTARY: Inhibition of Carnitine palmitoyltransferase 2.

Data set [6] deals with T4, Carnitine O-palmitoyltransferase 2, mitochondrial (Homo sapiens, UniProt P23786).
T4 sequence (P23786 whole entry): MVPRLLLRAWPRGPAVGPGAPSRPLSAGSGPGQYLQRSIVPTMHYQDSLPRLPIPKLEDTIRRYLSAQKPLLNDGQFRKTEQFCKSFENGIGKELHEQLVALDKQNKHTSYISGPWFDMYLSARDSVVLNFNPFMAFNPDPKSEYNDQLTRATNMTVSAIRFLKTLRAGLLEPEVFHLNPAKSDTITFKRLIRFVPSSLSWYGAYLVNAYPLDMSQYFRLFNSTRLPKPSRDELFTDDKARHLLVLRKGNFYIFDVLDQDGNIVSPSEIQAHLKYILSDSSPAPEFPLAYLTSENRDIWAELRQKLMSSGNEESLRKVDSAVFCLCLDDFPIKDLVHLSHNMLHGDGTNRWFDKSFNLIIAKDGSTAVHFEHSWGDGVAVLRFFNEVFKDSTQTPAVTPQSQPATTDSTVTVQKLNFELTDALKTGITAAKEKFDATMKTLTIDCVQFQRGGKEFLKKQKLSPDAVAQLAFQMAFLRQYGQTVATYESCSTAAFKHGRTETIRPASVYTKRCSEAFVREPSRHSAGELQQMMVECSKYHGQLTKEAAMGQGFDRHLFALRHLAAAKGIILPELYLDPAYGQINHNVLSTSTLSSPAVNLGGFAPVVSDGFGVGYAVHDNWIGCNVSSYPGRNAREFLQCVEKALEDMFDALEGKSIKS
Described as §2.

Data set [7] addresses T5, Carnitine O-palmitoyltransferase 1, muscle isoform (Homo sapiens, UniProt Q92523).
T5 sequence (Q92523 whole entry): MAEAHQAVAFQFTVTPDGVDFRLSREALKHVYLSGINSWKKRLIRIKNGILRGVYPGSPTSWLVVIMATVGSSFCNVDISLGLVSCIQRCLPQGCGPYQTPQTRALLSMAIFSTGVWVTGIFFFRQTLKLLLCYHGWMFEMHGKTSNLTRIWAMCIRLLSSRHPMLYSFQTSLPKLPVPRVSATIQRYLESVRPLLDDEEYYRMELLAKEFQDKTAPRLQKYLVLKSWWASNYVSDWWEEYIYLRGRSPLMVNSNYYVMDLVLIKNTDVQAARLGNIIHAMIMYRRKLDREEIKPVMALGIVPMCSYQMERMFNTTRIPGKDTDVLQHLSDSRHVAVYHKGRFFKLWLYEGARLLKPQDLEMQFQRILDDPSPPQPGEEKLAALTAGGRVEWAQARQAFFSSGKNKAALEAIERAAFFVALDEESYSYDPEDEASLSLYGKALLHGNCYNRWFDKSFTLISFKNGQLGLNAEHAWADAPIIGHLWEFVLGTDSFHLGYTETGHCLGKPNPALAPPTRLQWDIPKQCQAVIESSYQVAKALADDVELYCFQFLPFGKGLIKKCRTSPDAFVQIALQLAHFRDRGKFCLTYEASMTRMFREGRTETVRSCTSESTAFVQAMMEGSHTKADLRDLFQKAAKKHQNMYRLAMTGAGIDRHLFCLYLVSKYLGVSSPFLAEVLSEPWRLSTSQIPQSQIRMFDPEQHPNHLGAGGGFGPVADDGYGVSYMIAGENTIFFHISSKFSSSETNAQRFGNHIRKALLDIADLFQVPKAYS
The data set can be described thus: SUPPLEMENTARY: Inhibition of Carnitine palmitoyltransferase 1, muscle isoform. On the set-up: species or system Muscle tissue.

Data set [8] can be described thus: SUPPLEMENTARY: Lyophilisation Solubility Assay (LYSA). It is filed as physicochemical. The settings on record: read-out: Kinetic_solubility.

By IC50 is commonly meant the concentration that inhibits the measured activity by half. As a reminder, the logD is the decadic logarithm of the distribution of all forms, ionised or not, between an organic phase and buffer at a given pH.

Converted amounts (≈) assume the structure as drawn.

Turning to `COc1ccc(Cl)cc1Cn1cc(C(=O)O)c2ccc(C(=O)Nc3ccccc3)cc21`, the IC50 is 0.104 µM in data set [1]; 0.0996 µM in data set [2]; over 100 µM in data set [5]; over 100 µM in data set [6]; over 100 µM in data set [7]. In data set [3], the Papp turned out to be 5.3 nm/s. The same compound returned a log distribution coefficient (logD) in data set [4] of 3.13. Besides, the solubility kinetic in data set [8] was under 0.001 mg/mL.
With `CCOC(=O)C1CN(S(=O)(=O)c2cc(Cl)ccc2OC)c2cc(C(=O)Nc3cccc(F)c3)ccc2O1` (stereo not given), the IC50 in data set [1] was 0.339 µM; in data set [2], 0.221 µM; in data set [5], over 100 µM; in data set [6] it was over 100 µM; in data set [7], over 100 µM. Further, the Papp in data set [3] amounted to 13.1 nm/s. In data set [4], this compound showed a logD of 3.58. Further, the solubility kinetic in data set [8] is under 0.001 mg/mL.
Turning to `COc1ccc(Cl)cc1S(=O)(=O)c1c2cc(C(=O)Nc3ccc(C(=O)O)cc3)ccc2nn1C`, the IC50 in data set [1] is 0.0563 µM; in data set [2], 0.0601 µM; in data set [5] it was over 100 µM; in data set [6], over 100 µM; in data set [7], over 100 µM. For the same compound, in data set [3], the Papp worked out at 22.5 nm/s. This compound also returned a logD in data set [4] of 2.41. Moreover, in data set [8], the solubility kinetic amounted to 0.036 mg/mL (≈ 72 µM).
For `COc1ccc(Cl)cc1S(=O)(=O)N1CC(C(=O)O)Oc2ccc(C(=O)Nc3ccccc3F)cc21` (stereo not given), the IC50 in data set [1] was 0.169 µM; in data set [2], 0.218 µM; in data set [5], over 100 µM; in data set [6], over 100 µM; in data set [7], over 100 µM. For the same compound, the Papp in data set [3] worked out at 3.8 nm/s. In data set [4], this compound yielded a logD of -0.49. Further, the solubility kinetic in data set [8] is over 0.617 mg/mL.
With `COc1ccc(Cl)cc1S(=O)(=O)N1CC(C(=O)O)Oc2ccc(C(=O)Nc3ccc(F)cc3)cc21` (stereo not given), the IC50 was 0.131 µM in data set [1]; 0.0809 µM in data set [2]; over 100 µM in data set [5]; over 100 µM in data set [6]; 99.9 µM in data set [7]. The Papp in data set [3] was 0.6 nm/s. In data set [4], this compound yielded a logD of -0.22. In data set [8], the solubility kinetic was 0.347 mg/mL (≈ 666 µM).
Take `O=C(O)c1ccc(NC(=O)c2ccc3c(c2)N(S(=O)(=O)c2cccc(Cl)c2)CCS3(=O)=O)cc1`: the IC50 in data set [1] came out at 0.0395 µM; in data set [2] it was 0.0542 µM; in data set [5], 20.8 µM; in data set [6], 5.44 µM; in data set [7], 15.5 µM. For the same compound, the Papp in data set [3] is 8.6 nm/s. The compound further returned a logD in data set [4] of 0.25. In addition, the solubility kinetic in data set [8] was over 0.626 mg/mL.
As to `Cc1cc(C)cc(S(=O)(=O)N2CCS(=O)(=O)c3ccc(C(=O)Nc4ccc(C(=O)O)cc4)cc32)c1`, the IC50 amounted to 0.0181 µM in data set [1]; 0.031 µM in data set [2]; 10.5 µM in data set [5]; 2.8 µM in data set [6]; 5.3 µM in data set [7]. Further, the Papp in data set [3] was 19.5 nm/s. Besides, in data set [4], the logD amounted to 0.55. Besides, the solubility kinetic in data set [8] turned out to be 0.481 mg/mL (≈ 935 µM).
With `O=C1CN(c2cccc(-c3n[nH]c([C@H]4CCCCN4C(=O)COc4ccccc4)n3)c2)C(=O)N1`, the half-inhibitory concentration (IC50) in data set [1] was 0.15 µM; in data set [2] it was 0.0968 µM; in data set [5] it was 56.9 µM; in data set [6], 23.5 µM; in data set [7], 61.8 µM. For the same compound, the Papp in data set [3] stood at 19.2 nm/s. Further, the log distribution coefficient (logD) in data set [4] was determined as 2.16. Besides, the solubility kinetic in data set [8] came to 0.054 mg/mL (≈ 117 µM).
With `COc1ccc(Cl)cc1S(=O)(=O)c1nn(C)c2ccc(C(=O)Nc3ccc(CC(=O)O)cc3)cc12`, the IC50 in data set [1] was 0.125 µM; in data set [2], 0.166 µM; in data set [5], over 100 µM; in data set [6], over 100 µM; in data set [7], 1.73 µM. Further, in data set [3], the Papp stood at 3.9 nm/s. In addition, the logD in data set [4] was determined as 0.12. The solubility kinetic in data set [8] came to 0.07 mg/mL (≈ 136 µM).
For the compound `Cc1cc(C)cc(S(=O)(=O)N2CCSc3ccc(C(=O)Nc4ccc(C(=O)O)cc4)cc32)c1`, the IC50 in data set [1] worked out at 0.026 µM; in data set [2], 0.051 µM; in data set [5] it was 2.62 µM; in data set [6], 1.58 µM; in data set [7] it was 2.68 µM. Also, the Papp in data set [3] came out at 17.9 nm/s. The logD in data set [4] came out at 1.75. The solubility kinetic in data set [8] turned out to be 0.125 mg/mL (≈ 259 µM).
